Measurements reported in ChEMBL document CHEMBL1177670 (Bioorg Med Chem, 2010).
Calls of active or inactive are those of the source. No cut-off for these calls is given here.

How the values were obtained:
D(2) dopamine receptor [1] = biological target: T1, D(2) dopamine receptor (Homo sapiens, UniProt P14416); assay: biochemical
D(3) dopamine receptor [2] = biological target: T2, D(3) dopamine receptor (Homo sapiens, UniProt P35462); assay: biochemical
D(4) dopamine receptor [3] = biological target: T3, D(4) dopamine receptor (Homo sapiens, UniProt P21917); assay: biochemical
T3 sequence (P21917 whole entry): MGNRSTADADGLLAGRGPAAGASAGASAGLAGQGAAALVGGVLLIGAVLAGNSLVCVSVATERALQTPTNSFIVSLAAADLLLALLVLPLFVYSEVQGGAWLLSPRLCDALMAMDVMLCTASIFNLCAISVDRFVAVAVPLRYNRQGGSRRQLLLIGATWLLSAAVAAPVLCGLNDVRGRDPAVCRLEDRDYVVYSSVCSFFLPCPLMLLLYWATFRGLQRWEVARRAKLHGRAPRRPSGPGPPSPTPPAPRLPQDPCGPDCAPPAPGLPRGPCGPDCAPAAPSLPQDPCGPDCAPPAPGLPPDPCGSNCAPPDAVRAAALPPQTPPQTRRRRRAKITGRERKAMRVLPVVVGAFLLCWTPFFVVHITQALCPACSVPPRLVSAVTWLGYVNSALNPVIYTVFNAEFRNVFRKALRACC

D(2) dopamine receptor [4] = biological target: T1, D(2) dopamine receptor
D(4) dopamine receptor [5] = biological target: T3, D(4) dopamine receptor
[6] = biological target: T4, Sigma non-opioid intracellular receptor 1 (Cavia porcellus, UniProt Q60492)
Description: (§1) Displacement of [3H](+)-pentazocine from sigma 1 receptor in guinea pig brain homogenates after 1 hr by liquid scintillation counting

D(2) dopamine receptor [7] = biological target: T1, D(2) dopamine receptor; assay: Antagonist at human dopamine D2 long receptor expressed in HEK293 cells assessed as inhibition of forskolin-induced adenylyl cyclase activity at 10 nM after 20 mins by spectrophotometric analysis in presence of quinpirole; assay type: functional, cell-based
D(3) dopamine receptor [8] = biological target: T2, D(3) dopamine receptor
[9] = biological target: T4, Sigma non-opioid intracellular receptor 1; assay: biochemical
Description: as §1

T4 sequence (Q60492 whole entry): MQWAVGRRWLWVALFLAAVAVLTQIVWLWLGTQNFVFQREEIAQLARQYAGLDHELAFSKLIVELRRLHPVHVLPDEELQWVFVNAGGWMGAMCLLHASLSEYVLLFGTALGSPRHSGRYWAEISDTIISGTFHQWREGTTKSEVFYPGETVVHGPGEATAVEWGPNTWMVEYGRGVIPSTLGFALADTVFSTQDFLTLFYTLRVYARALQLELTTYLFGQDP
T2 sequence (P35462 whole entry): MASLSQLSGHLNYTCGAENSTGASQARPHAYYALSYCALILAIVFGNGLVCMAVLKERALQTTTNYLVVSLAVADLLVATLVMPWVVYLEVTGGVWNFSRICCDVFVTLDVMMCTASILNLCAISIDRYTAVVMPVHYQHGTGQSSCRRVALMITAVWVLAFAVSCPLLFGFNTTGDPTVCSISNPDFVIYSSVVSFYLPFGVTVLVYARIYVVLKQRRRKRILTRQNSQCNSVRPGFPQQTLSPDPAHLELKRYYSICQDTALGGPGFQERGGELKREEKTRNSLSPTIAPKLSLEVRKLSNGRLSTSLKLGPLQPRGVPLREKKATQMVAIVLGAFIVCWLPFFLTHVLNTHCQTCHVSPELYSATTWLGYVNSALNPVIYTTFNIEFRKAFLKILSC
T1 sequence (P14416 whole entry): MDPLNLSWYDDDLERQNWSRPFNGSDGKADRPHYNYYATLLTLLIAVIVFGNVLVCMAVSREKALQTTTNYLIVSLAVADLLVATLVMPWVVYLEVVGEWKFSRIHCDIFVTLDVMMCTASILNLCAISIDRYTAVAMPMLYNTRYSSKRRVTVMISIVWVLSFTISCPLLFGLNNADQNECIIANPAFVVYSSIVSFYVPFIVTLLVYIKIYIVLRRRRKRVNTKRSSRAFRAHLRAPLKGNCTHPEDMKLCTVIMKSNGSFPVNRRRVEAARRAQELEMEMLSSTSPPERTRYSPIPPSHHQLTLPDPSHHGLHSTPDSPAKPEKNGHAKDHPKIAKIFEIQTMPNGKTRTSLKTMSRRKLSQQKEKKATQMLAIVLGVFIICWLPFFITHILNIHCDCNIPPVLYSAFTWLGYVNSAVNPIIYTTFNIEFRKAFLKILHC

Row | SMILES | Ki (D(2) dopamine receptor [1]) | Ki (D(3) dopamine receptor [2]) | Ki (D(4) dopamine receptor [3]) | also measured
1 | O=C1N(CCF)CN(c2ccccc2)C12CCN(Cc1coc3ccccc13)CC2 | 8 nM | 9.3 nM | 945 nM | 
2 | OC1(c2ccc(Br)cc2)CCN(Cc2coc3ccccc23)CC1 | 6.6 nM | 10.9 nM |  | 
3 | OC1(c2ccc(Br)cc2)CCN(Cc2c[nH]c3ccc(OCCF)cc23)CC1 |  | 188 nM | 344 nM | 
4 | OC1(c2ccc(I)cc2)CCN(Cc2c[nH]c3ccccc23)CC1 | 3.8 nM |  |  | 
5 | OC1(c2ccc(I)cc2)CCN(Cc2c[nH]c3ncccc23)CC1 | 61 nM | 1590 nM | 634 nM | 
6 | OC1(c2ccc(I)cc2)CCN(Cc2cc3ccccc3o2)CC1 |  | 49 nM | 245 nM | 
7 | COc1ccc2[nH]cc(CN3CCC(O)(c4ccc(Br)cc4)CC3)c2c1 |  |  |  | Ki (D(2) dopamine receptor [4]): 2.5 nM; Ki (D(4) dopamine receptor [5]): 700 nM; Ki [6]: 108 nM
8 | OC1(c2ccc(Br)cc2)CCN(Cc2cc3ccccc3o2)CC1 |  |  | 254 nM | 
9 | COc1cccc2[nH]cc(CN3CCC(O)(c4ccc(I)cc4)CC3)c12 |  | 122 nM |  | Activity (D(2) dopamine receptor [7]): Active
10 | COc1ccc2[nH]cc(CN3CCC(O)(c4ccccc4)CC3)c2c1 | 1400 nM | 2930 nM | > 10000 nM | 
11 | CN1CN(c2ccccc2)C2(CCN(Cc3coc4ccccc34)CC2)C1=O | 7.1 nM | 2.1 nM | 492 nM | 
12 | OC1(c2ccc(I)cc2)CCN(Cc2coc3ccccc23)CC1 | 2.4 nM |  |  | 
13 | OC1(c2ccc(Br)cc2)CCN(Cc2c[nH]c3ccccc23)CC1 |  |  |  | Ki (D(2) dopamine receptor [4]): 4.8 nM; Ki (D(3) dopamine receptor [8]): 110 nM; Ki (D(4) dopamine receptor [5]): 652 nM; Ki [6]: 12.1 nM
14 | OC1(c2ccc(Cl)cc2)CCN(Cc2c[nH]c3ccccc23)CC1 |  |  |  | Ki (D(3) dopamine receptor [8]): 104 nM; Ki (D(4) dopamine receptor [5]): 449 nM
15 | CSc1ccc(C2(O)CCN(Cc3c[nH]c4ncccc34)CC2)cc1 | 254 nM | 4940 nM | 937 nM | 
16 | O=C1N(Cc2cn(CCF)nn2)CN(c2ccccc2)C12CCN(Cc1coc3ccccc13)CC2 | 2 nM | 0.9 nM | 978 nM | 
17 | COc1ccc2[nH]cc(CN3CCC(O)(c4ccc(Cl)cc4)CC3)c2c1 |  |  |  | Ki (D(2) dopamine receptor [4]): 4.2 nM; Ki (D(3) dopamine receptor [8]): 204 nM; Ki (D(4) dopamine receptor [5]): > 3500 nM; Ki [6]: 242 nM
18 | COc1ccc2[nH]cc(CN3CCC(O)(c4ccc(I)cc4)CC3)c2c1 | 0.9 nM | 100 nM | 129 nM | Activity (D(2) dopamine receptor [7]): Active
19 | COc1cccc2[nH]cc(CN3CCC(O)(c4ccc(Cl)cc4)CC3)c12 |  |  |  | Ki (D(2) dopamine receptor [4]): 4.2 nM; Ki (D(3) dopamine receptor [8]): 250 nM; Ki (D(4) dopamine receptor [5]): > 2000 nM; Ki [6]: > 5000 nM
20 | COc1cccc2[nH]cc(CN3CCC(O)(c4ccc(Br)cc4)CC3)c12 |  |  |  | Ki (D(2) dopamine receptor [4]): 2.3 nM; Ki (D(3) dopamine receptor [8]): 190 nM; Ki (D(4) dopamine receptor [5]): 840 nM; Ki [6]: 2560 nM
21 | OC1(c2ccccc2)CCN(Cc2cc3ccccc3s2)CC1 | 46.8 nM | 142 nM |  | Ki [9]: 2.13 nM
22 | OC1(c2ccc(Br)cc2)CCN(Cc2c[nH]c3cccc(OCCF)c23)CC1 |  | 849 nM | 668 nM | 
23 | OC1(c2ccc(Br)cc2)CCN(Cc2c[nH]c3ncccc23)CC1 | 212 nM | 2980 nM | 620 nM | 
